# Values quoted from earlier work in patent US9681659B2, “Agrochemical formulation comprising encapsulated pesticide” (BASF SE, priority 2011, dated 2017).
SMILES,"solubility values (in water) (all data at 20° C., examples for aprotic, polar solvent B) [g/L]","solubilities in water (in water, examples for pesticide A) [mg/L]"
CC1=CC(=O)CC(C)(C)C1 [isoporone],15,
COc1cc(C)c(C(=O)c2c(OC)ccc(Br)c2C)c(OC)c1OC [metrafenon],,0.5
